Laboratory results from ChEMBL document CHEMBL4393689, “Discovery of fluorescent coumarin-benzo[b]thiophene 1, 1-dioxide conjugates as mitochondria-targeting antitumor STAT3 inhibitors” (Eur J Med Chem, 2019).
Activity calls are given as the source filed them. The calls are words filed in the database; no cut-off is given here.

Legend:
HCT-116 = experiment: Antiproliferative activity against human HCT116 cells assessed as reduction in cell viability incubated for 48 hrs by MTT assay; type: functional, cell-based; settings: HCT-116, 48 h
MDA-MB-231 [1] = experiment: Antiproliferative activity against human MDA-MB-231 cells assessed as reduction in cell viability incubated for 48 hrs by MTT assay; type: functional, cell-based; settings: MDA-MB-231, 48 h
HepG2 = experiment: Antiproliferative activity against human HepG2 cells assessed as reduction in cell viability incubated for 48 hrs by MTT assay; type: functional, cell-based; settings: HepG2, 48 h
MCF7 = experiment: Antiproliferative activity against human MCF7 cells assessed as reduction in cell viability incubated for 48 hrs by MTT assay; type: functional, cell-based; settings: MCF7, 48 h
[2] = Selectivity index, ratio of IC50 for human L02 cells to IC50 for human HepG2 cells; type: toxicity; settings: L02 cells versus HepG2 cells, read-out: Ratio IC50
[3] = target: Signal transducer and activator of transcription 3 (Homo sapiens) (UniProt P40763); experiment: Inhibition of STAT3 in human MDA-MB-231 cells assessed as decrease in STAT3-DNA binding at 4 uM incubated for 24 hrs by electrophoretic mobility shift assay; type: cell-based
Chain of Signal transducer and activator of transcription 3 (Homo sapiens) (P40763 whole entry): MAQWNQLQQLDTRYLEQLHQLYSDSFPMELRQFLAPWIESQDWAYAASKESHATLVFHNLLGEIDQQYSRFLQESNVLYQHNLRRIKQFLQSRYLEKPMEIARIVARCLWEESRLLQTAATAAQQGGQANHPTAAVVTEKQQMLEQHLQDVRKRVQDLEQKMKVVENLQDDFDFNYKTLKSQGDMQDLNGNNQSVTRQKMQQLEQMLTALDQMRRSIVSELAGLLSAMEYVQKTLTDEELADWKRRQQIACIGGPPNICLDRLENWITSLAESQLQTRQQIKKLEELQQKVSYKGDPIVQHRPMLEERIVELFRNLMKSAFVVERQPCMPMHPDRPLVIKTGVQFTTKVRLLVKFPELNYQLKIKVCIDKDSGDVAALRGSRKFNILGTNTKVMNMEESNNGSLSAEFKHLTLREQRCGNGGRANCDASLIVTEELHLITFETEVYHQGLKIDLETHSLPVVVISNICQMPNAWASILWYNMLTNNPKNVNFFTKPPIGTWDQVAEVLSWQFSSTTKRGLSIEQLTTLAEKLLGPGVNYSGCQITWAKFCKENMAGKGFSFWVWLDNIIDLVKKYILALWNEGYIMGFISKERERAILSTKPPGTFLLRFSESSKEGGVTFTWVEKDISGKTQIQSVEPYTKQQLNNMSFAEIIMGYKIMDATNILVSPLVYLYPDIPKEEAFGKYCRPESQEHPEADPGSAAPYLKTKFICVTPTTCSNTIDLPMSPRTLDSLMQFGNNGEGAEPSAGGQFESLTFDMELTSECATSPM

[4] = target: Signal transducer and activator of transcription 3 (Homo sapiens) (UniProt P40763); experiment: Inhibition of STAT3 in human MDA-MB-231 cells assessed as decrease in STAT3 phosphorylation at Tyr705 residue at 4 uM incubated for 24 hrs by Western blot analysis; type: cell-based
[5] = Selectivity index, ratio of IC50 for human MCF10A cells to IC50 for human MDA-MB-231 cells; type: toxicity; settings: MCF10A cells versus MDA-MB-231 cells, read-out: Ratio IC50
MDA-MB-231 [6] = experiment: Induction of apoptosis in human MDA-MB-231 cells assessed as increase in cleaved PARP levels at 4 uM incubated for 24 hrs by Western blot analysis; type: functional, cell-based
MCF-10A = experiment: Cytotoxicity against human MCF10A cells assessed as reduction in cell viability incubated for 48 hrs by MTT assay; type: cell-based
[7] = target: T1, Signal transducer and activator of transcription 1-alpha/beta (Homo sapiens) (UniProt P42224); experiment: Inhibition of STAT1 in human MDA-MB-231 cells assessed as decrease in STAT1 phosphorylation at Y701 residue at 4 uM incubated for 24 hrs by Western blot analysis; type: cell-based
T1 sequence (whole entry): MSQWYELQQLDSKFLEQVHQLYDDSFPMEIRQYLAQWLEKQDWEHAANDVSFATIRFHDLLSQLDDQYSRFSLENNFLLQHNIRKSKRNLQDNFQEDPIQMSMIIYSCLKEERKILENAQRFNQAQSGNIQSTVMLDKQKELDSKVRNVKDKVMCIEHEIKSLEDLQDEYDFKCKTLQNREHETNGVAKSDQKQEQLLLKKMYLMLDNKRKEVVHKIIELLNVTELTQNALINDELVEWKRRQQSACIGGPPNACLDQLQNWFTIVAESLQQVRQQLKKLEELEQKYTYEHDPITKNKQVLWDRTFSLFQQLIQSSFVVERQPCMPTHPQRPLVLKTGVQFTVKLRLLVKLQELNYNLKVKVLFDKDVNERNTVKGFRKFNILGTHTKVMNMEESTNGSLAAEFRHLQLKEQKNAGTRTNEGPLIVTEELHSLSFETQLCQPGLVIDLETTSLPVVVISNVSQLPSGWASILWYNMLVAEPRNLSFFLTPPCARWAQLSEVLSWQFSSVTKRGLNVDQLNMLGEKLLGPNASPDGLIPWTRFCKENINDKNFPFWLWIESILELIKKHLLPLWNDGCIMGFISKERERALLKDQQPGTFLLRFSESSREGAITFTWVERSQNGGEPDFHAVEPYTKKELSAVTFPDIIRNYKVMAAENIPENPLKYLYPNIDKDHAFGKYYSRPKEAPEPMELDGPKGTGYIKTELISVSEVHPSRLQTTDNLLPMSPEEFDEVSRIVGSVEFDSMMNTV

MDA-MB-231 [8] = experiment: Induction of apoptosis in human MDA-MB-231 cells assessed as increase in cleaved caspase-3 levels at 4 uM incubated for 24 hrs by Western blot analysis; type: functional, cell-based
MDA-MB-231 [9] = experiment: Induction of apoptosis in human MDA-MB-231 cells assessed as increase in cleaved caspase-9 levels at 4 uM incubated for 24 hrs by Western blot analysis; type: functional, cell-based
[10] = target: Mitogen-activated protein kinase; ERK1/ERK2 (Homo sapiens) (UniProt P27361+P28482); experiment: Inhibition of ERK 1/2 in human MDA-MB-231 cells assessed as reduction in ERK 1/2 phosphorylation at 4 uM incubated for 24 hrs by Western blot analysis; type: cell-based
Chain of Mitogen-activated protein kinase; ERK1/ERK2 (Homo sapiens) (P27361 whole entry, looked up): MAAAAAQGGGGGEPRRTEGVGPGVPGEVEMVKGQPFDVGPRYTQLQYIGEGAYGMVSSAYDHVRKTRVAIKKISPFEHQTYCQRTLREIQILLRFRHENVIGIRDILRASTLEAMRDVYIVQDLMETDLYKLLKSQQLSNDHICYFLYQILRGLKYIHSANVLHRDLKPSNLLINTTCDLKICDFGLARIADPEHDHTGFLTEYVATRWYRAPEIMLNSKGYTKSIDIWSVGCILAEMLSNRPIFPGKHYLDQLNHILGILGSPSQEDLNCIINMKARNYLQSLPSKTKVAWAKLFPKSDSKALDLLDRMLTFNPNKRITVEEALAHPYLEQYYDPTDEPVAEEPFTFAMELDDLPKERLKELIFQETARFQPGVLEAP
Chain of Mitogen-activated protein kinase; ERK1/ERK2 (Homo sapiens) (P28482 whole entry, looked up): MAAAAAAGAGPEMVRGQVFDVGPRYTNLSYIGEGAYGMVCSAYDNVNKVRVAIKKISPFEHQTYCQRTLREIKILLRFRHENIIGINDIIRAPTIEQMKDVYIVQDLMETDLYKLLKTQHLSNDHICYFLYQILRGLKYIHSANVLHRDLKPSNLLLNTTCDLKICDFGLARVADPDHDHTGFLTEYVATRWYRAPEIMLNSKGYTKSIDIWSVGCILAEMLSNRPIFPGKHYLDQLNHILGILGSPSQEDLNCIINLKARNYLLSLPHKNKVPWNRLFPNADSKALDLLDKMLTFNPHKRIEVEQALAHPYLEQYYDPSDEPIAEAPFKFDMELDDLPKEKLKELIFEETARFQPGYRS

L02 = experiment: Cytotoxicity against human LO2 cells assessed as reduction in cell viability incubated for 48 hrs by MTT assay; type: cell-based; settings: L02, 48 h
[11] = target: Tyrosine-protein kinase JAK2 (Homo sapiens) (UniProt O60674); experiment: Inhibition of JAK2 in human MDA-MB-231 cells assessed as reduction in JAK2 phosphorylation at 4 uM incubated for 24 hrs by Western blot analysis; type: cell-based
Chain of Tyrosine-protein kinase JAK2 (Homo sapiens) (O60674 whole entry): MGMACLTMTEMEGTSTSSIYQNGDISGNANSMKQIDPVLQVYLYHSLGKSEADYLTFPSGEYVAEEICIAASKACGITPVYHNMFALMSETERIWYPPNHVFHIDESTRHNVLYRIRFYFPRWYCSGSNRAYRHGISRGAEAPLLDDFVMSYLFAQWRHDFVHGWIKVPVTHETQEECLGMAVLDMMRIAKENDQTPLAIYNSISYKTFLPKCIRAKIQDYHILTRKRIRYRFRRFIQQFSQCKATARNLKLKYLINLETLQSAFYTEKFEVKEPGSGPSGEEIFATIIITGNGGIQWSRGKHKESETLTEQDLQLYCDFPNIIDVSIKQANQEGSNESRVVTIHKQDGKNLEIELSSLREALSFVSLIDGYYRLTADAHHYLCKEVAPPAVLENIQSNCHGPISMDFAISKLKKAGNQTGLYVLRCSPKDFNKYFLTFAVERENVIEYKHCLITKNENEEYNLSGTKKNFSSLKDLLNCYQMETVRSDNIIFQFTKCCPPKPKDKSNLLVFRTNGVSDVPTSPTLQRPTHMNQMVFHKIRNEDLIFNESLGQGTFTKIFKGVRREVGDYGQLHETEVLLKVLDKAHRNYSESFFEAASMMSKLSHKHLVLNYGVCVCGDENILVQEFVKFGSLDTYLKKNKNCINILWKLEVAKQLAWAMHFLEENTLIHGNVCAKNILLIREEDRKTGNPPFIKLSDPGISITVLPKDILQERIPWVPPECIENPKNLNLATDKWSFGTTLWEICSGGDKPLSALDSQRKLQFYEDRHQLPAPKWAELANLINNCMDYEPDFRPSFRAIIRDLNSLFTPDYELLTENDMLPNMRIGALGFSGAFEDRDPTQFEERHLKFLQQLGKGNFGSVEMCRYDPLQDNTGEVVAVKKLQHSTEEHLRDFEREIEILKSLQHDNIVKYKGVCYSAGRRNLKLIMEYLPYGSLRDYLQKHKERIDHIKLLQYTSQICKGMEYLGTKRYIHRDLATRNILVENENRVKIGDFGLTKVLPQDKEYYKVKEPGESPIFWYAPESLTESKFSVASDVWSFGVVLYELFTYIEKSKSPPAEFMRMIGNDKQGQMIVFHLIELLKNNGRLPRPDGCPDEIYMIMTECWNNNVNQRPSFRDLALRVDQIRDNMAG

[12] = target: Proto-oncogene tyrosine-protein kinase Src (Homo sapiens) (UniProt P12931); experiment: Inhibition of Src in human MDA-MB-231 cells assessed as reduction in Src phosphorylation at 4 uM incubated for 24 hrs by Western blot analysis; type: cell-based
Chain of Proto-oncogene tyrosine-protein kinase Src (Homo sapiens) (P12931 2-536 limits assumed): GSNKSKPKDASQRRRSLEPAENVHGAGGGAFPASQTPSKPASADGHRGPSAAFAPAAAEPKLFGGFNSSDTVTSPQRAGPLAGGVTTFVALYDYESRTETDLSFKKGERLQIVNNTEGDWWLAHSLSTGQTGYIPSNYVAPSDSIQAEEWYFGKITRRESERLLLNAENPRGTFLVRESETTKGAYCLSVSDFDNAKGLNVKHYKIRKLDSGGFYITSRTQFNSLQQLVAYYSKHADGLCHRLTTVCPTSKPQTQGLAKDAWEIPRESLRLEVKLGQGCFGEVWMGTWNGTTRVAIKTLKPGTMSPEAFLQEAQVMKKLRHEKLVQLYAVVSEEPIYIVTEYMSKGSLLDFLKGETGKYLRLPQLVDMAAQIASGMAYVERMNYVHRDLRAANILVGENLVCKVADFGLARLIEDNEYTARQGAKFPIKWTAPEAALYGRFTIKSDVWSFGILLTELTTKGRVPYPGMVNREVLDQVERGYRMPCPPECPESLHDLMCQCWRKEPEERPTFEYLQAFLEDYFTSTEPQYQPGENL

| Structure (SMILES) | IC50 (HCT-116) | IC50 (MDA-MB-231 [1]) | IC50 (HepG2) | IC50 (MCF7) | other results |
| --- | --- | --- | --- | --- | --- |
| CCN(CC)c1ccc2cc(C(=O)N3CCN(C(=O)C4=Cc5ccccc5S4(=O)=O)CC3)c(=O)oc2c1 | 3.78 µM | 2.32 µM | 4.31 µM | 3 µM |  |
| CCN(CC)c1ccc2cc(C(=O)N3CCN(C(=O)C4=Cc5c([N+](=O)[O-])cccc5S4(=O)=O)CC3)c(=O)oc2c1 | 3.24 µM | 3.46 µM | 4.91 µM | 4.41 µM |  |
| CCN(CC)c1ccc2cc(C(=O)N3CCN(C(=O)C4=Cc5cccc(Br)c5S4(=O)=O)CC3)c(=O)oc2c1 | 2.97 µM | 2.32 µM | 4.74 µM | 3.2 µM |  |
| CCN(CC)c1ccc2cc(C(=O)N3CCN(C(=O)C4=Cc5cc(Cl)ccc5S4(=O)=O)CC3)c(=O)oc2c1 | 4.12 µM | 2.35 µM | 5.55 µM | 4.39 µM |  |
| O=[N+]([O-])c1ccc2c(c1)S(=O)(=O)C=C2 | 2.16 µM | 1.81 µM | 3.52 µM | 3.71 µM | selectivity ratio [2]: 1.5; inhibition [3]: Active; inhibition [4]: Active; selectivity ratio [5]: 3.4; Activity (MDA-MB-231 [6]): Active; IC50 (MCF-10A): 6.11 µM; inhibition [7]: inactive; Activity (MDA-MB-231 [8]): Active; Activity (MDA-MB-231 [9]): Active; inhibition [10]: inactive; IC50 (L02): 5.2 µM; inhibition [11]: inactive; inhibition [12]: inactive |
| CCN(CC)c1ccc2cc(C(=O)N3CCN(C(=O)C4=Cc5c(OC)cccc5S4(=O)=O)CC3)c(=O)oc2c1 | 2.02 µM | 1.84 µM | 2.94 µM | 3.95 µM |  |
| CCN(CC)c1ccc2cc(C(=O)N3CCN(C(=O)C4=Cc5c(Cl)cccc5S4(=O)=O)CC3)c(=O)oc2c1 | 1.57 µM | 2.24 µM | 4.49 µM | 4.44 µM |  |
| CCN(CC)c1ccc2cc(C(=O)N3CCN(C(=O)C4=Cc5cc([N+](=O)[O-])ccc5S4(=O)=O)CC3)c(=O)oc2c1 | 6.74 µM | 4.92 µM | 7.47 µM | 6.33 µM |  |
| O=S1(=O)C=Cc2ccccc21 | 9.33 µM | 27.7 µM | 22.9 µM | 15.2 µM |  |
| CCN(CC)c1ccc2cc(C(=O)N3CCN(C(=O)C4=Cc5c(F)cccc5S4(=O)=O)CC3)c(=O)oc2c1 | 2.33 µM | 2.13 µM | 3.3 µM | 4.04 µM |  |

Second part, led by results:

| IC50 (HCT-116) | IC50 (MDA-MB-231 [1]) | IC50 (HepG2) | IC50 (MCF7) | Structure (SMILES) | other results |
| --- | --- | --- | --- | --- | --- |
| 4.26 µM | 3.2 µM | 4.9 µM | 6.35 µM | CCN(CC)c1ccc2cc(C(=O)N3CCN(C(=O)C4=Cc5ccc(F)cc5S4(=O)=O)CC3)c(=O)oc2c1 |  |
| 4.44 µM | 2.03 µM | 5.29 µM | 5.23 µM | CCN(CC)c1ccc2cc(C(=O)N3CCN(C(=O)C4=Cc5ccc(Cl)cc5S4(=O)=O)CC3)c(=O)oc2c1 |  |
| 2.79 µM | 2.74 µM | 5.52 µM | 5.04 µM | CCN(CC)c1ccc2cc(C(=O)N3CCN(C(=O)C4=Cc5ccc(Br)cc5S4(=O)=O)CC3)c(=O)oc2c1 |  |
| 2.3 µM | 1.92 µM | 4.21 µM | 2.28 µM | CCN(CC)c1ccc2cc(C(=O)N3CCN(C(=O)C4=Cc5ccc(OC)cc5S4(=O)=O)CC3)c(=O)oc2c1 |  |
| 3.83 µM | 2.23 µM | 5.15 µM | 3.9 µM | CCN(CC)c1ccc2cc(C(=O)N3CCN(C(=O)C4=Cc5cc(Br)ccc5S4(=O)=O)CC3)c(=O)oc2c1 |  |
| 4.95 µM | 5.22 µM | 7.09 µM | 6.76 µM | CCN(CC)c1ccc2cc(C(=O)N3CCN(C(=O)C4=Cc5ccc([N+](=O)[O-])cc5S4(=O)=O)CC3)c(=O)oc2c1 |  |
